The record followed here is ChEMBL document CHEMBL5058646 (2022).

Experiment [1] deals with T1, Zinc finger and BTB domain-containing protein 1 (Homo sapiens) (UniProt Q9Y2K1).
T1 sequence (whole entry): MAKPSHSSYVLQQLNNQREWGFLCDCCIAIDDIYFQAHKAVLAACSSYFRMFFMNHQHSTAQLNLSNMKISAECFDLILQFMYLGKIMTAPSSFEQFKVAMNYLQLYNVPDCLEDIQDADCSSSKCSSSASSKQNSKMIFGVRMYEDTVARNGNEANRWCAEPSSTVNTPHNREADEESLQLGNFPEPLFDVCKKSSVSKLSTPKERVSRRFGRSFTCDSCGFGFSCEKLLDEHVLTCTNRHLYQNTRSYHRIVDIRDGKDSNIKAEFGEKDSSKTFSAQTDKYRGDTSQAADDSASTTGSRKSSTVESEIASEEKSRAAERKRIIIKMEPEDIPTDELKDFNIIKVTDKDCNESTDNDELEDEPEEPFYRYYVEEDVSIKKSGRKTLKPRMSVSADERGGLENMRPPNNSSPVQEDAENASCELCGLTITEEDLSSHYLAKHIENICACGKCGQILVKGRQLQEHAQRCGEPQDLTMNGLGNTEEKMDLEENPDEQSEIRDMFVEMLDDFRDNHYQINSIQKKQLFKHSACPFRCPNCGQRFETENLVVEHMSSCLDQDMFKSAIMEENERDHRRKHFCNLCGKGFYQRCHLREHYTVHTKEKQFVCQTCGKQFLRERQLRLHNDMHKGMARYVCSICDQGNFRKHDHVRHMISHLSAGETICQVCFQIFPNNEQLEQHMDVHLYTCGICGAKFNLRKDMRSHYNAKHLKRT
The following applies: SUD4, Compound concentration 1.0 uM.

The nature of experiment [2]: GPCRScan assay: inhibition of GABA/PBR. Further details: species or system Rattus norvegicus; radioligand conc. used [nm] 0.3 – 2.0, parental cells brain tissue.
Experiment [3] concerns the target AP2-associated protein kinase 1 (Homo sapiens) (UniProt Q2M2I8). In words: AAK1 SGC Tm panel (DSF). The following applies: Compound concentration 20.0 uM.
A further experiment has as its target Histamine H3 receptor (Homo sapiens, UniProt Q9Y5N1). To be noted: Compound concentration 10.0 uM.
Experiment [4] has as its target Calcium/calmodulin-dependent protein kinase type II subunit beta (Homo sapiens) (UniProt Q13554). In words: CAMK2B SGC Tm panel (DSF). The following applies: Compound concentration 20.0 uM.
Experiment [5] concerns the target Ephrin type-A receptor 7 (Homo sapiens) (UniProt Q15375). In words: EPHA7 SGC Tm panel (DSF). The following applies: Compound concentration 20.0 uM.
The target of experiment [6] is T2, Zinc finger protein 131 (Homo sapiens) (UniProt P52739).
T2 sequence (whole entry): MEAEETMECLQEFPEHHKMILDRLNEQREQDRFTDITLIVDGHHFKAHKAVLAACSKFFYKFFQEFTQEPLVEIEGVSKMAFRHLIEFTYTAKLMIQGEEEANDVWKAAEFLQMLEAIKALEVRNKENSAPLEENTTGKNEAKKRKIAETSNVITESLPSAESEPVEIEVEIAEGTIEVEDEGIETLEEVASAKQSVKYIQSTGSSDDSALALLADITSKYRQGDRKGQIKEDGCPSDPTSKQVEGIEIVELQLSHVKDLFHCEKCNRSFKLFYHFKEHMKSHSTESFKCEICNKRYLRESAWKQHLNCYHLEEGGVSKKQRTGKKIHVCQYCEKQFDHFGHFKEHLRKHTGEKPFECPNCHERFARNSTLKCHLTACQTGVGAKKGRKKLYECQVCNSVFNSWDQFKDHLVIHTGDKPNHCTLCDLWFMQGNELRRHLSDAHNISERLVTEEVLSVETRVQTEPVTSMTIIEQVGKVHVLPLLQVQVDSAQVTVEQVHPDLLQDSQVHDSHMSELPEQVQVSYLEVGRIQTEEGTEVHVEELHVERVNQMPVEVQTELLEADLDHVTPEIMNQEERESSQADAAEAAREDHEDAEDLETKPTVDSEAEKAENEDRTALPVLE
To be noted: SUD4, Compound concentration 1.0 uM.

The species entered for a further experiment is Rattus norvegicus. The following applies: Compound concentration 10.0 uM.
Experiment [7] deals with Proto-oncogene tyrosine-protein kinase Src (Homo sapiens) (UniProt P12931). In words: SRC SGC Tm panel (DSF). To be noted: Compound concentration 20.0 uM.
Chain of Proto-oncogene tyrosine-protein kinase Src (Homo sapiens) (P12931 2-536 limits assumed): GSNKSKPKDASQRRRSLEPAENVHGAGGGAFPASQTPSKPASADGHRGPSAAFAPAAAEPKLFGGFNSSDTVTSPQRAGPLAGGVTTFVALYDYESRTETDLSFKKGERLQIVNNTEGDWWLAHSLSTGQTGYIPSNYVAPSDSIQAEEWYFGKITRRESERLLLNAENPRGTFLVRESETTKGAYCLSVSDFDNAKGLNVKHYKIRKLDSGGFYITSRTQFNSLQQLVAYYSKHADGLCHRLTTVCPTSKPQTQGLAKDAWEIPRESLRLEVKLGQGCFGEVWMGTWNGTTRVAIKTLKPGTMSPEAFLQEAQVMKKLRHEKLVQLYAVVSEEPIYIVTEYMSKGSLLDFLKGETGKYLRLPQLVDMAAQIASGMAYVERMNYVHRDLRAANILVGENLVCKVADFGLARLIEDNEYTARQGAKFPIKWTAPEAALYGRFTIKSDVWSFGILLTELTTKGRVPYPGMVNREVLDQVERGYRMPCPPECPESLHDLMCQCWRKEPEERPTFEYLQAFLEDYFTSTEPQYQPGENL
In experiment [8] the target is Tyrosine-protein kinase Mer (Homo sapiens) (UniProt Q12866). In words: MERTK SGC Tm panel (DSF). To be noted: Compound concentration 20.0 uM.
Experiment [9] concerns the target Dual specificity protein kinase CLK3 (Homo sapiens) (UniProt P49761). In words: CLK3 SGC Tm panel (DSF). To be noted: Compound concentration 20.0 uM.
Experiment [10] concerns the target Delta-type opioid receptor (Homo sapiens) (UniProt P41143). To be noted: Compound concentration 10.0 uM.
The next experiment has as its target Mu-type opioid receptor (Homo sapiens, UniProt P35372). The following applies: Compound concentration 10.0 uM.
The target in experiment [11] is Tyrosine-protein kinase Fes/Fps (Homo sapiens) (UniProt P07332). In words: FES SGC Tm panel (DSF). To be noted: Compound concentration 20.0 uM.
Experiment [12] concerns the target Histamine H1 receptor (Homo sapiens) (UniProt P35367). To be noted: Compound concentration 10.0 uM.
Experiment [13] deals with Alpha-1D adrenergic receptor (Homo sapiens) (UniProt P25100). To be noted: Compound concentration 10.0 uM.
Chain of Alpha-1D adrenergic receptor (Homo sapiens) (P25100 whole entry, the tested form may be a part): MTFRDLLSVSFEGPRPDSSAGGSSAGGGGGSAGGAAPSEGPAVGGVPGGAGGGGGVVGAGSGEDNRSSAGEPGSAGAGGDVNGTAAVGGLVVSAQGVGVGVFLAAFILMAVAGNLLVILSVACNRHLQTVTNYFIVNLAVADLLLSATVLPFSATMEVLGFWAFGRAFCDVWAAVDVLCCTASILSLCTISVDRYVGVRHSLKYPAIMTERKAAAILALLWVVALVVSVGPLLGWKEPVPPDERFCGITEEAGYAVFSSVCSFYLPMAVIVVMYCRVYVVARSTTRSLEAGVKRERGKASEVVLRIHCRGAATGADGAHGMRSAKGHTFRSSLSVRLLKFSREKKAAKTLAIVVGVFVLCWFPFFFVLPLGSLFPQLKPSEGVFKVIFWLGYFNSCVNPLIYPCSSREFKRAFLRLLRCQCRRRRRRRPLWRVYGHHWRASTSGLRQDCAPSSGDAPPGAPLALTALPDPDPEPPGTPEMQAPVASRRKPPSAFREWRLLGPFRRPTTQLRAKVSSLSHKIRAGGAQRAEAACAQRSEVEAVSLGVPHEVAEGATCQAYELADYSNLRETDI
For experiment [14], the target named is T3, Zinc finger and BTB domain-containing protein 24 (Homo sapiens) (UniProt O43167).
T3 sequence (whole entry): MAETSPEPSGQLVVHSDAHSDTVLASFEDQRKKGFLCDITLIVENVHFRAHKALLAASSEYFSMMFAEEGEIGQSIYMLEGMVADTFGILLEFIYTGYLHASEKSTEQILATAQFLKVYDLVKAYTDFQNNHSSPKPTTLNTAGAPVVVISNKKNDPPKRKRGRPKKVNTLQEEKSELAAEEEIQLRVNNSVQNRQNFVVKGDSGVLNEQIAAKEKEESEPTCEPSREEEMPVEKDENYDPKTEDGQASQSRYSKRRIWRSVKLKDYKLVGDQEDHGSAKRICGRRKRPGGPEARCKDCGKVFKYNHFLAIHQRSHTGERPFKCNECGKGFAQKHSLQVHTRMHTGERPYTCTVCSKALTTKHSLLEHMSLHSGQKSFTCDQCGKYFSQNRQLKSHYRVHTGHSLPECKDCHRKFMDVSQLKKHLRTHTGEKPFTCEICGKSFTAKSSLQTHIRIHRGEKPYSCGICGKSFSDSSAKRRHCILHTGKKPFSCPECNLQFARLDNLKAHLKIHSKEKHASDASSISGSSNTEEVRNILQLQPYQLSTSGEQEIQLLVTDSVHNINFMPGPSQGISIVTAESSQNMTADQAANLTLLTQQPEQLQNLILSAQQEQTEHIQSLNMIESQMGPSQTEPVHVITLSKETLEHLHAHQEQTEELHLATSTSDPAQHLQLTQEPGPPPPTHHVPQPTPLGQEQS
The following applies: SUD4, Compound concentration 1.0 uM.

Experiment [15] deals with Serine/threonine-protein kinase Nek1 (Homo sapiens) (UniProt Q96PY6). In words: NEK1 SGC Tm panel (DSF). To be noted: Compound concentration 20.0 uM.

Chain of Histamine H3 receptor (Q9Y5N1 whole entry): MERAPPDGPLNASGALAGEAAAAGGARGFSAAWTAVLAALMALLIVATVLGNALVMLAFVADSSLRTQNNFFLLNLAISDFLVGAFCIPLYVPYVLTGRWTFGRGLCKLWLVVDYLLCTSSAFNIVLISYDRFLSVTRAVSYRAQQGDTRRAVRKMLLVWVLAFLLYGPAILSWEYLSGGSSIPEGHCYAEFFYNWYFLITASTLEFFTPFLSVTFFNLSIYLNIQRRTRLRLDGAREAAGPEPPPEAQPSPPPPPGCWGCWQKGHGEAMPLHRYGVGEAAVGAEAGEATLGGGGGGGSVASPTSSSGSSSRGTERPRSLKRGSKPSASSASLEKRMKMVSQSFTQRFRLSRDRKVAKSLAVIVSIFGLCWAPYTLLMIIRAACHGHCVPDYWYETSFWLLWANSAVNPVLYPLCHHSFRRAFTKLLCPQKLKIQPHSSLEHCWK
Chain of AP2-associated protein kinase 1 (Homo sapiens) (Q2M2I8 whole entry, looked up): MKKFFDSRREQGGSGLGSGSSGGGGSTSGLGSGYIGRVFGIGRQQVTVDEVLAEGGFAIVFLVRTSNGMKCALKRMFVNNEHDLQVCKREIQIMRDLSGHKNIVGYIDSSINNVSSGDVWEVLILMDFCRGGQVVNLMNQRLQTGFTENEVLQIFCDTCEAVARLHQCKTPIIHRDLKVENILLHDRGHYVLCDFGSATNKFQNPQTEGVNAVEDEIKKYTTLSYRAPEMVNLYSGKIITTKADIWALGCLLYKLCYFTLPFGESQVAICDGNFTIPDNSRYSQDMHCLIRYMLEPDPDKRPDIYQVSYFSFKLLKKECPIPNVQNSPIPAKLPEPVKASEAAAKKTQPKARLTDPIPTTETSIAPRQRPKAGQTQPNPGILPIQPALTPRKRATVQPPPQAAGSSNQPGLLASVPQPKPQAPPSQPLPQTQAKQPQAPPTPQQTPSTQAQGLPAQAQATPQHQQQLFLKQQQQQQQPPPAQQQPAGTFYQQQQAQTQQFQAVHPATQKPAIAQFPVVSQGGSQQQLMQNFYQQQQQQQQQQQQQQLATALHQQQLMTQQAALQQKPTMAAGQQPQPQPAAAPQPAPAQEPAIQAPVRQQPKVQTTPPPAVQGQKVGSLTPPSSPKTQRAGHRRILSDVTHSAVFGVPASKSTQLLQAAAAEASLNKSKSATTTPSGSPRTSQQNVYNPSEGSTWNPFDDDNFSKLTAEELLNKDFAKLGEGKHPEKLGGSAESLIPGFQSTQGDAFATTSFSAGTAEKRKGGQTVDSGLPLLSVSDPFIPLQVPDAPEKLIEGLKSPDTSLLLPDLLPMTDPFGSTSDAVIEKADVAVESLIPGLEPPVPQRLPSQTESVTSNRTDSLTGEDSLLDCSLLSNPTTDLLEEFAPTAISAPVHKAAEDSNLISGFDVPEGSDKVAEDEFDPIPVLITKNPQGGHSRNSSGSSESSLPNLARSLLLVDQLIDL
Chain of Calcium/calmodulin-dependent protein kinase type II subunit beta (Homo sapiens) (Q13554 whole entry): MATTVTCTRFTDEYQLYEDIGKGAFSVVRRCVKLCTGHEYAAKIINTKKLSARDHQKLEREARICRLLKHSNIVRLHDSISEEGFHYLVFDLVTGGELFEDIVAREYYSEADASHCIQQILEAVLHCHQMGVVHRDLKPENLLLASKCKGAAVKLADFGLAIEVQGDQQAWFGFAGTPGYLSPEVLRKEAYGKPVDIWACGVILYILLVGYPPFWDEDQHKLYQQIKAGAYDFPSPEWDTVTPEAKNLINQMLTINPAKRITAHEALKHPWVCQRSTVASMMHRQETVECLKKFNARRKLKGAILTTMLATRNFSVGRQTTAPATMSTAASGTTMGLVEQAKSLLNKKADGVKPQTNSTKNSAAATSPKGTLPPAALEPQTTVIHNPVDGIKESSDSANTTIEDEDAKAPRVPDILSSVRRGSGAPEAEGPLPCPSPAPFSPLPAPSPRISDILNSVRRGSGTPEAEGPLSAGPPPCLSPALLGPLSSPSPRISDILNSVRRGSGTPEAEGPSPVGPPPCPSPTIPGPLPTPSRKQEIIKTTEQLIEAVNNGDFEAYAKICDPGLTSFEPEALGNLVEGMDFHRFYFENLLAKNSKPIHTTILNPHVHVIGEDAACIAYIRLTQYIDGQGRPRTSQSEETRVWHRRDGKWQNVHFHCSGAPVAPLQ
Chain of Ephrin type-A receptor 7 (Homo sapiens) (Q15375 28-998 limits assumed): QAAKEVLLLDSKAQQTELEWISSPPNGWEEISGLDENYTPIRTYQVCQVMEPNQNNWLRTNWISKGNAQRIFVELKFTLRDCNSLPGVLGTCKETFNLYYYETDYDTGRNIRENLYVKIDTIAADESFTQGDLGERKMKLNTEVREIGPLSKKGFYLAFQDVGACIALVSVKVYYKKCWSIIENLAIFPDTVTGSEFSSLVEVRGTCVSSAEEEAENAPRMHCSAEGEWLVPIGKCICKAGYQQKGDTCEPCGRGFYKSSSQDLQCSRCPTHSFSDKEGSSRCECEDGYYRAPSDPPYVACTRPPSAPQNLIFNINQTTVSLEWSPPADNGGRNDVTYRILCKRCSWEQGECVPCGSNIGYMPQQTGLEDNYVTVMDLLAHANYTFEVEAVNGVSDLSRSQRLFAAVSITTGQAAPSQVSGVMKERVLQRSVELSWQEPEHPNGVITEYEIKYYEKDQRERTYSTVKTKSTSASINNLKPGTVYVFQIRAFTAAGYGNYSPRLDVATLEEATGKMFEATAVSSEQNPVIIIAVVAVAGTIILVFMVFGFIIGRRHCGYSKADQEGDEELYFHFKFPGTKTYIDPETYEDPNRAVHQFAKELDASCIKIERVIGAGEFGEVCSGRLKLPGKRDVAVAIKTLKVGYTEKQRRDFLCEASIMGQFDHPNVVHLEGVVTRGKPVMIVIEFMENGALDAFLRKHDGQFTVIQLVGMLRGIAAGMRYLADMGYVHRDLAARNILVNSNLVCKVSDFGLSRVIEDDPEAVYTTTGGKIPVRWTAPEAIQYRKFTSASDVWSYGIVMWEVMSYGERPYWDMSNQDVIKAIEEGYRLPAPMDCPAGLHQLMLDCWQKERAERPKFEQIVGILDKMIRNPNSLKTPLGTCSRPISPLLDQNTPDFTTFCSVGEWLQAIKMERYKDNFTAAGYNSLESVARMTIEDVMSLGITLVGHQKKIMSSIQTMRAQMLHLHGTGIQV
Chain of Dual specificity protein kinase CLK3 (Homo sapiens) (P49761 whole entry, looked up): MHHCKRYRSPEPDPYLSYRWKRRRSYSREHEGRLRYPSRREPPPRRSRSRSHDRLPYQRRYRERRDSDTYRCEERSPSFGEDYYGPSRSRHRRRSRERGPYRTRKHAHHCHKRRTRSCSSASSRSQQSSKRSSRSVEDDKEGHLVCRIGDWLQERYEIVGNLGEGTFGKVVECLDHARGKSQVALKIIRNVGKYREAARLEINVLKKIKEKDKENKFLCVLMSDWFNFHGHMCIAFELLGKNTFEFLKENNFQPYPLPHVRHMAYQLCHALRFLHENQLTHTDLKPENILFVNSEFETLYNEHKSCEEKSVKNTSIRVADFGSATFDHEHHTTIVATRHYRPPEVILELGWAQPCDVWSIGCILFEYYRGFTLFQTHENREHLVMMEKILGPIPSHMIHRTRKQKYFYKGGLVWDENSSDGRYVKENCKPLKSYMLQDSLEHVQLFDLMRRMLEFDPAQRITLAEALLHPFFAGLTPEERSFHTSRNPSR
Chain of Mu-type opioid receptor (P35372 whole entry): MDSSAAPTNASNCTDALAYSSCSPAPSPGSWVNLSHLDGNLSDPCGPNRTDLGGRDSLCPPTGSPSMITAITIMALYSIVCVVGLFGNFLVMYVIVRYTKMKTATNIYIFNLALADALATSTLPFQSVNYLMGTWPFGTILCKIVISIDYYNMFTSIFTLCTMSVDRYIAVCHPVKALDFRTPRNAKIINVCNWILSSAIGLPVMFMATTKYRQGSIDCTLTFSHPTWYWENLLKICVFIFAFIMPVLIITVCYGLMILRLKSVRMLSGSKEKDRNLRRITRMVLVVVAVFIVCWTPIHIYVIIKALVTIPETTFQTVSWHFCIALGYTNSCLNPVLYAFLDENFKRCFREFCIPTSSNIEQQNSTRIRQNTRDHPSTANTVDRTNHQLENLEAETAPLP

As for `C[C@@H]1CN(c2ncc(Cl)c(Nc3ccc4c(c3)n(CCC(C)(C)O)c(=O)n4C)n2)C[C@H](C)C1(F)F`, the LogFC was 0.0235 in experiment [1], -0.044 in [6] and 0.0258 in experiment [14]. Also, the Ki in experiment [2] is 1110 nM. Moreover, the pKi in experiment [2] stood at 6.01. In addition, the Tm in [3] is 47 °C; in experiment [4], 47 °C; in [5] it was 48 °C; in experiment [7] it was 53 °C; in [8], 47 °C; in experiment [9] it was 34 °C. The Tm in experiment [11] is 44 °C; in experiment [15], 47 °C. For the same compound, the inhibition on Histamine H3 receptor is 60.7%; in the experiment listed under Rattus norvegicus it was 59.6%; in experiment [10], 18.1%; at Mu-type opioid receptor, 86.6%; in experiment [12] it was 10.3%; in experiment [13], 16%.

In general, Ki refers to the dissociation constant of the complex between target and ligand, obtained from inhibition or displacement. For orientation: pKi means −log10 of the Ki, conventionally taken in molar units. The Tm is the temperature at which the thermal transition is half complete. The term inhibition denotes the share of the control response that was lost under treatment.
